From PMC8854719, “Phase 1A/1B dose-escalation and -expansion study to evaluate the safety, pharmacokinetics, food effects and antitumor activity of pamiparib in advanced solid tumours” (British Journal of Cancer, 2021)
Where two headings read alike, the source gives them in different places.

Legend:
[1] = Plasma pharmacokinetics of pamiparib (LC-MS/MS, non-compartmental); design: species or system human; settings: in vivo; for AUC(0-inf): AUC0-inf; for Vd/F: Vz/F
Experimental: Patients in the dose-escalation phase received a single oral dose of pamiparib on day 1 of cycle 1 to collect samples for single-dose PK assessment over 48 h, followed by continuous daily doses (BID and QD) starting on day 3 of cycle 1 as a 21-day period of repeated drug administration (days 3–23), and then continued every 21-day cycle thereafter until disease progression, toxicity, or patient withdrawal. Eight BID dose levels (2.5, 5, 10, 20, 40, 60, 80, 120 mg) were administered (Fig. 1). After completion of BID dose-escalation, alternative dosing regimens of 120 and 160 mg QD were selected for exploration based on the total daily dose equivalent to the RP2D (60 mg BID) and MTD (80 mg BID), respectively. The QD dosing regimen was added as an amendment to the protocol with the purpose of exploring the feasibility of a more convenient regimen. During the dose-expansion phase, patients received pamiparib 60 mg BID (RP2D from BID dose-escalation phase) continuously from day 1 of cycle 1.
Pamiparib in plasma was measured using a validated liquid chromatography-tandem–mass spectrometry assay with a lower limit of quantification of 1.0 ng/mL. The collection schedule for blood samples used to assess the PK profile is presented in the Supplemental Appendix. Summary PK parameters, including area under the concentration-time curve from time 0 to 9 h (AUC0-9) or infinity (AUC0-inf), maximal plasma concentration (Cmax) and time to maximal plasma concentration (Tmax), were estimated. The pharmacodynamic (PD) activity of pamiparib was explored through the evaluation of poly(ADP-ribose [PAR]) formation in peripheral blood mononuclear cells (PBMCs) after pamiparib administration. The schedule for blood sample collection (PK and PBMCs) and additional assessment information for PAR levels in PBMCs and pharmacodynamic activity is presented in the Supplemental Appendix. Antitumor activity was assessed by radiographic imaging (computed tomography or magnetic resonance imaging) during screening, within 28 days of first pamiparib dose, every 6 weeks in the first 12 months and every 9 weeks thereafter.
Descriptive statistics were used to summarise all study data (see Supplemental Appendix). Progression-free survival (PFS) and event-free rates were estimated using the Kaplan–Meier method along with the corresponding 95% CI. Pharmacokinetic parameters were derived using standard non-compartmental methods with Phoenix WinNonlin Version 6.4 or higher (Pharsight Corp., Mountain View, California).
The PK profile of pamiparib was assessed based on blood samples collected at predose and 0.5, 1, 2, 4, 6, 9, 24, and 48 hours postdose on Days 1-3 and then at predose and 0.5, 1, 2, 4, 6, and 9 hours postdose on Day 17 of Cycle 1 in Phase 1A. Sparse PK samples were collected in phase 1B Part A. The food effect on the PK of pamiparib was assessed based on blood samples collected at predose and 0.5, 1, 2, 4, 7, 24, and 48 hours postdose on Day 1 and Day 6 of Cycle 1 in phase 1B Part B.

[2] = system: BCRP (breast cancer resistance protein); design: method as in PMID 32652442; settings: cited from earlier work
[3] = human, 2.5 mg, Single Dose (Cycle 1 Day 1)
[4] = human, 5 mg, Single Dose (Cycle 1 Day 1)
[5] = human, 10 mg, Single Dose (Cycle 1 Day 1)
[6] = human, 20 mg, Single Dose (Cycle 1 Day 1)
[7] = human, 40 mg, Single Dose (Cycle 1 Day 1)
[8] = human, 60 mg, Single Dose (Cycle 1 Day 1)
[9] = human, 80 mg, Single Dose (Cycle 1 Day 1)
[10] = human, 120 mg, Single Dose (Cycle 1 Day 1)
[11] = human, 160 mg, Single Dose (Cycle 1 Day 1)

C[C@]12CCCN1CC1=NNC(=O)c3cc(F)cc4[nH]c2c1c34 [pamiparib]
Dose proportionality, AUC0-inf (h*ng/mL): Intercept (95% CI) ([1]; human): 5.97 (5.36-6.57)
Dose proportionality, AUC0-inf (h*ng/mL): Slope (95% CI) ([1]; human): 1.04 (0.88-1.20)
Dose proportionality, Cmax (ng/mL): Intercept (95% CI) ([1]; human): 3.66 (3.34-3.99)
Dose proportionality, Cmax (ng/mL): Slope (95% CI) ([1]; human): 0.96 (0.87-1.04)
Accumulation Ratio, AUC0-9 ([1]; human, 2.5 mg): 2.42
Accumulation Ratio, Cmax ([1]; human, 2.5 mg): 2.44
CL/F, Single Dose (Cycle 1 Day 1) ([1]; human, 2.5 mg): 4265.3 (34.8) mL/hr
t1/2, Single Dose (Cycle 1 Day 1) ([1]; human, 2.5 mg): 12.03 (7.08, 33.87) hr
AUC(0-t) ([1]; human, 2.5 mg, AUC0-9, Single Dose (Cycle 1 Day 1)): 385 ng·h/mL
AUC(0-t) ([1]; human, 2.5 mg, AUC0-9, Steady State (Cycle 1 Day 17)): 931 ng·h/mL
AUC(0-inf) [1, 3]: 586 ng·h/mL
Cmax [1, 3]: 74.5 ng/mL
Cmax ([1]; human, 2.5 mg, Steady State (Cycle 1 Day 17)): 182 ng/mL
Vd/F [1, 3]: 52.4 L
Accumulation Ratio, AUC0-9 ([1]; human, 5 mg): 1.93
Accumulation Ratio, Cmax ([1]; human, 5 mg): 2.09
CL/F, Single Dose (Cycle 1 Day 1) ([1]; human, 5 mg): 2056.9 (49.5) mL/hr
AUC(0-t) ([1]; human, 5 mg, AUC0-9, Single Dose (Cycle 1 Day 1)): 1100 ng·h/mL
AUC(0-t) ([1]; human, 5 mg, AUC0-9, Steady State (Cycle 1 Day 17)): 2120 ng·h/mL
AUC(0-inf) [1, 4]: 2430 ng·h/mL
Cmax [1, 4]: 193 ng/mL
Cmax ([1]; human, 5 mg, Steady State (Cycle 1 Day 17)): 404 ng/mL
Tmax ([1]; human, 5 mg, Tmax, Steady State (Cycle 1 Day 17)): 0.53 h
Vd/F [1, 4]: 32.7 L
half-life ([1]; human, 5 mg, t1/2, Single Dose (Cycle 1 Day 1)): 11 h
Accumulation Ratio, AUC0-9 ([1]; human, 10 mg): 1.68
Accumulation Ratio, Cmax ([1]; human, 10 mg): 1.59
CL/F, Single Dose (Cycle 1 Day 1) ([1]; human, 10 mg): 1359.2 (35.9) mL/hr
AUC(0-t) ([1]; human, 10 mg, AUC0-9, Single Dose (Cycle 1 Day 1)): 2580 ng·h/mL
AUC(0-t) ([1]; human, 10 mg, AUC0-9, Steady State (Cycle 1 Day 17)): 4330 ng·h/mL
AUC(0-inf) [1, 5]: 7360 ng·h/mL
Cmax [1, 5]: 412 ng/mL
Cmax ([1]; human, 10 mg, Steady State (Cycle 1 Day 17)): 657 ng/mL
Tmax ([1]; human, 10 mg, Tmax, Steady State (Cycle 1 Day 17)): 1.05 h
Vd/F [1, 5]: 27.6 L
half-life ([1]; human, 10 mg, t1/2, Single Dose (Cycle 1 Day 1)): 14.1 h
AUC0-9, Single Dose (Cycle 1 Day 1) ([1]; human, 20 mg): 4134.9 (29.9) ng/ml*hr
Accumulation Ratio, AUC0-9 ([1]; human, 20 mg): 1.82
Accumulation Ratio, Cmax ([1]; human, 20 mg): 1.62
CL/F, Single Dose (Cycle 1 Day 1) ([1]; human, 20 mg): 2550.4 (58.7) mL/hr
Cmax, Steady State (Cycle 1 Day 17) ([1]; human, 20 mg): 1267.6 (19.9) ng/ml
AUC(0-t) ([1]; human, 20 mg, AUC0-9, Steady State (Cycle 1 Day 17)): 7510 ng·h/mL
AUC(0-inf) [1, 6]: 7840 ng·h/mL
Cmax [1, 6]: 783 ng/mL
Tmax ([1]; human, 20 mg, Tmax, Single Dose (Cycle 1 Day 1)): 0.53 h
Vd/F [1, 6]: 31.4 L
half-life ([1]; human, 20 mg, t1/2, Single Dose (Cycle 1 Day 1)): 8.53 h
Accumulation Ratio, AUC0-9 ([1]; human, 40 mg): 1.86
Accumulation Ratio, Cmax ([1]; human, 40 mg): 1.60
CL/F, Single Dose (Cycle 1 Day 1) ([1]; human, 40 mg): 1826.6 (85.8) mL/hr
t1/2, Single Dose (Cycle 1 Day 1) ([1]; human, 40 mg): 11.76 (6.24, 24.37) hr
AUC(0-t) ([1]; human, 40 mg, AUC0-9, Single Dose (Cycle 1 Day 1)): 8950 ng·h/mL
AUC(0-t) ([1]; human, 40 mg, AUC0-9, Steady State (Cycle 1 Day 17)): 18300 ng·h/mL
AUC(0-inf) [1, 7]: 21900 ng·h/mL
Cmax [1, 7]: 1750 ng/mL
Cmax ([1]; human, 40 mg, Steady State (Cycle 1 Day 17)): 2940 ng/mL
Tmax ([1]; human, 40 mg, Tmax, Steady State (Cycle 1 Day 17)): 1.5 h
Vd/F [1, 7]: 31 L
AUC0-9, Single Dose (Cycle 1 Day 1) ([1]; human, 60 mg): 10403.7 (29.2) ng/ml*hr
CL/F, Single Dose (Cycle 1 Day 1) ([1]; human, 60 mg): 1874.7 (55.4) mL/hr
Geometric mean half-life ([1]; human, 60 mg): 13.5 h
t1/2, Single Dose (Cycle 1 Day 1) ([1]; human, 60 mg): 13.50 (7.14, 24.61) hr
AUC(0-t) ([1]; human, 60 mg, AUC0-9, Steady State (Cycle 1 Day 17)): 25200 ng·h/mL
AUC(0-inf) [1, 8]: 32000 ng·h/mL
Cmax [1, 8]: 1880 ng/mL
Cmax ([1]; human, 60 mg, Steady State (Cycle 1 Day 17)): 3830 ng/mL
Vd/F [1, 8]: 36.5 L
Accumulation Ratio, AUC0-9 ([1]; human, 80 mg): 2.07
Accumulation Ratio, Cmax ([1]; human, 80 mg): 1.96
CL/F, Single Dose (Cycle 1 Day 1) ([1]; human, 80 mg): 2786.6 (56.0) mL/hr
Cmax, Single Dose (Cycle 1 Day 1) ([1]; human, 80 mg): 2317.8 (43.0) ng/ml
AUC(0-t) ([1]; human, 80 mg, AUC0-9, Single Dose (Cycle 1 Day 1)): 13200 ng·h/mL
AUC(0-t) ([1]; human, 80 mg, AUC0-9, Steady State (Cycle 1 Day 17)): 25300 ng·h/mL
AUC(0-inf) [1, 9]: 28700 ng·h/mL
Cmax ([1]; human, 80 mg, Steady State (Cycle 1 Day 17)): 4350 ng/mL
Tmax ([1]; human, 80 mg, Tmax, Single Dose (Cycle 1 Day 1)): 1.98 h
Tmax ([1]; human, 80 mg, Tmax, Steady State (Cycle 1 Day 17)): 1.08 h
Vd/F [1, 9]: 38.5 L
half-life ([1]; human, 80 mg, t1/2, Single Dose (Cycle 1 Day 1)): 9.58 h
AUC0-9, Steady State (Cycle 1 Day 17) ([1]; human, 120 mg): 36558.4 (32.4) ng/ml*hr
AUC0-inf, Single Dose (Cycle 1 Day 1) ([1]; human, 120 mg): 68952.9 (43.3) ng/ml*hr
Cmax, Single Dose (Cycle 1 Day 1) ([1]; human, 120 mg): 3752.8 (41.1) ng/ml
Cmax, Steady State (Cycle 1 Day 17) ([1]; human, 120 mg): 6059.1 (27.7) ng/ml
Vz/F, Single Dose (Cycle 1 Day 1) ([1]; human, 120 mg): 31373.9 (13.9) mL
t1/2, Single Dose (Cycle 1 Day 1) ([1]; human, 120 mg): 14.29 (9.83, 30.30) hr
AUC(0-t) ([1]; human, 120 mg, AUC0-9, Single Dose (Cycle 1 Day 1)): 21100 ng·h/mL
AUC(0-t) ([1]; human, 120 mg, AUC0-9, Steady State (Cycle 1 Day 17)): 26900 ng·h/mL
AUC(0-inf) [1, 10]: 52000 ng·h/mL
Cmax [1, 10]: 3590 ng/mL
Cmax ([1]; human, 120 mg, Steady State (Cycle 1 Day 17)): 4530 ng/mL
Tmax ([1]; human, 120 mg, Tmax, Single Dose (Cycle 1 Day 1)): 1.95 h
Vd/F [1, 10]: 36.3 L
half-life ([1]; human, 120 mg, t1/2, Single Dose (Cycle 1 Day 1)): 10.9 h
Accumulation Ratio, AUC0-9 ([1]; human, 160 mg): 1.47
Accumulation Ratio, Cmax ([1]; human, 160 mg): 1.27
CL/F, Single Dose (Cycle 1 Day 1) ([1]; human, 160 mg): 1569.1 (44.8) mL/hr
AUC(0-t) ([1]; human, 160 mg, AUC0-9, Single Dose (Cycle 1 Day 1)): 31800 ng·h/mL
AUC(0-t) ([1]; human, 160 mg, AUC0-9, Steady State (Cycle 1 Day 17)): 45300 ng·h/mL
AUC(0-inf) [1, 11]: 102000 ng·h/mL
Cmax [1, 11]: 5340 ng/mL
Cmax ([1]; human, 160 mg, Steady State (Cycle 1 Day 17)): 6870 ng/mL
Vd/F [1, 11]: 34.5 L
half-life ([1]; human, 160 mg, t1/2, Single Dose (Cycle 1 Day 1)): 15.2 h
half-life ([1]; human, Mean terminal half-life): ~13 h
Tmax ([1]; human, Median Tmax): 1 to 2 h
Tmax ([1]; human, BID 2.5 mg, N 4, read-out: Tmax, Steady State (Cycle 1 Day 17)): 0.54 h
AUC0-9 ([1]; human, QD 120 mg, N 8, read-out: AUC0-9, Single Dose (Cycle 1 Day 1)): 21700 ng·h/mL
Exposure (Cmax and AUC0-inf) versus dose [1]: dose-proportional increase
Substrate of BCRP [2]: not a substrate
